Results from patent US12258354B2, “AhR modulators” (IDEAYA BIOSCIENCES, INC., priority 2018, dated 2025).
pIC50: −log10 of the molar value.

Each molecule was assayed against T1, hAhR (Homo sapiens, UniProt P35869) (assay: DRE-luciferase transcriptional reporter assay in HEPG2 DRE-Luc cells, TCDD-induced (antagonist mode)). Details: relative IC50, 3 nM TCDD, 24-hour incubation, firefly luciferase readout.
T1 construct: Stably integrated DRE-luciferase cell lines were generated by transducing the both cell lines with Cignal XRE luciferase reporter; endogenous in cells; host or cells: HEPG2 DRE-Luc cells (only the XRE luciferase reporter was transduced)
T1 sequence (P35869 11-848): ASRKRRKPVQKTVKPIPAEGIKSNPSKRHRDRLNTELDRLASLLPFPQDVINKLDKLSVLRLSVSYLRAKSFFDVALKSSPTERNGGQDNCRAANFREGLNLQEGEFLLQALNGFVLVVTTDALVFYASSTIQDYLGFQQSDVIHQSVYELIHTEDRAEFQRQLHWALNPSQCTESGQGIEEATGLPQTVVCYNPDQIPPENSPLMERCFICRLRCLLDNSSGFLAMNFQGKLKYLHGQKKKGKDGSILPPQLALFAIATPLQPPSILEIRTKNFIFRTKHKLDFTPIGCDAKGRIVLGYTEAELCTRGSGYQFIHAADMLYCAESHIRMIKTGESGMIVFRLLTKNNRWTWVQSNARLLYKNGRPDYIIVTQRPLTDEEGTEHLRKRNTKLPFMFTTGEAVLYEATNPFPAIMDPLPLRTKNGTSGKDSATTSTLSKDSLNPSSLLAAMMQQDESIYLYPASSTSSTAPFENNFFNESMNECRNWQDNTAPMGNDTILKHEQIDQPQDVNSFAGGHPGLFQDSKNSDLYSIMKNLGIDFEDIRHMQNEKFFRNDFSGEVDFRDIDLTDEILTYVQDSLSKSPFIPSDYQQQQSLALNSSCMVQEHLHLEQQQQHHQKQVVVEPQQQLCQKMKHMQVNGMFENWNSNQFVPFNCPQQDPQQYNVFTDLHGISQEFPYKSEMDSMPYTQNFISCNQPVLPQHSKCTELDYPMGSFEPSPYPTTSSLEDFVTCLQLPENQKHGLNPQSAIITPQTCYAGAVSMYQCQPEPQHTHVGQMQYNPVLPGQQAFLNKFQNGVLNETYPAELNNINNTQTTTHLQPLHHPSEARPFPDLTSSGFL
Format: cell-based
Summary of the method: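 Stable DRE(XRE)-luciferase HEPG2 clone seeded in OptiMEM with 0.5% heat-inactivated FBS, then given a semi-log compound dilution plus TCDD at 3 nM final. After 24 h, cells were lysed and firefly luminescence read. Response was normalised between TCDD and vehicle, and relative IC50 was taken as half-reduction between the fitted curve plateaus.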

pIC50 | Compound
> 6.70 | Cc1cc(-c2ncc3cc(C(F)(F)F)ccc3n2)ccc1N1CCOc2cnn(CC#N)c2C1=O [compound 036, 2-(7-(2-methyl-4-(6-(trifluoromethyl)quinazolin-2-yl)phenyl)-8-oxo-5,6,7,8-tetrahydro-1H-pyrazolo[3,4-f][1,4]oxazepin-1-yl)acetonitrile]
> 6.70 | Cc1cc(-c2ncc3cc(C(F)(F)F)ccc3n2)ccc1N1CCOc2cn(CCO)nc2C1=O [compound 037, 2-(2-hydroxyethyl)-7-(2-methyl-4-(6-(trifluoromethyl)quinazolin-2-yl)phenyl)-6,7-dihydro-2H-pyrazolo[3,4-f][1,4]oxazepin-8 (5H)-one]
> 6.70 | Cc1cc(-c2ncc3nc(C(F)(F)F)ccc3n2)ccc1N1CCOc2cn[nH]c2C1=O [compound 038, 7-(2-methyl-4-(6-(trifluoromethyl)pyrido[3,2-d]pyrimidin-2-yl)phenyl)-6,7-dihydro-1H-pyrazolo[3,4-f][1,4]oxazepin-8 (5H)-one]
5.00 to 6.00 | Cc1cc(-c2ncc3nc(C(F)(F)F)ccc3n2)ccc1N1CCOc2nn[nH]c2C1=O [compound 040, 7-[2-methyl-4-[6-(trifluoromethyl)pyrido[3,2-d]pyrimidin-2-yl]phenyl]-1H,5H,6H,7H,8H-[1,2,3]triazolo[4,5-f][1,4]oxazepin-8-one]
6.30 to 6.70 | Cc1cc(-c2ncc3nc(C(F)(F)F)ccc3n2)ccc1N1CCOc2nn(C)nc2C1=O [compound 042, 2-methyl-7-(2-methyl-4-(6-(trifluoromethyl)pyrido[3,2-d]pyrimidin-2-yl)phenyl)-6,7-dihydro-2H-[1,2,3]triazolo[4,5-f][1,4]oxazepin-8 (5H)-one]
5.00 to 6.00 | Cc1cc(-c2ncc3cc(C(F)(F)F)ccc3n2)ccc1N1CCOc2nn(C)nc2C1=O [compound 043, 2-methyl-7-(2-methyl-4-(6-(trifluoromethyl)quinazolin-2-yl)phenyl)-6,7-dihydro-2H-[1,2,3]triazolo[4,5-f][1,4]oxazepin-8 (5H)-one]
> 6.70 | Cc1cc(-c2ncc3cc(C(F)(F)F)ccc3n2)ccc1N1C(=O)c2[nH]ncc2OCC1C (stereo not drawn) [compound 044, 6-methyl-7-(2-methyl-4-(6-(trifluoromethyl)quinazolin-2-yl)phenyl)-6,7-dihydro-1H-pyrazolo[3,4-f][1,4]oxazepin-8 (5H)-one]
> 6.70 | Cc1cc(-c2ccc3nc(C(F)(F)F)ccc3n2)ccc1N1C(=O)c2[nH]ncc2OCC1C (stereo not drawn) [compound 045, 6-methyl-7-(2-methyl-4-(6-(trifluoromethyl)-1,5-naphthyridin-2-yl)phenyl)-6,7-dihydro-1H-pyrazolo[3,4-f][1,4]oxazepin-8 (5H)-one]
> 6.70 | Cc1cc(-c2ncc3nc(C(F)(F)F)ccc3n2)ccc1N1C(=O)c2[nH]ncc2OCC1C (stereo not drawn) [compound 046, 6-methyl-7-(2-methyl-4-(6-(trifluoromethyl)pyrido[3,2-d]pyrimidin-2-yl)phenyl)-6,7-dihydro-1H-pyrazolo[3,4-f][1,4]oxazepin-8 (5H)-one]
> 6.70 | Cc1cc(-c2ncc3nc(C(F)(F)F)ccc3n2)ccc1N1CCOc2cn(C)nc2C1=O [compound 047, 2-methyl-7-(2-methyl-4-(6-(trifluoromethyl)pyrido[3,2-d]pyrimidin-2-yl)phenyl)-6,7-dihydro-2H-pyrazolo[3,4-f][1,4]oxazepin-8 (5H)-one]
> 6.70 | Cc1cc(-c2ccc3nc(C(F)(F)F)ccc3n2)ccc1N1CCOc2cn(C)nc2C1=O [compound 048, 2-methyl-7-(2-methyl-4-(6-(trifluoromethyl)-1,5-naphthyridin-2-yl)phenyl)-6,7-dihydro-2H-pyrazolo[3,4-f][1,4]oxazepin-8 (5H)-one]
> 6.70 | Cc1cc(-c2ncc3nc(C(F)(F)F)ccc3n2)ccc1N1CCOc2cnn(C)c2C1 [compound 049, 1-methyl-7-(2-methyl-4-(6-(trifluoromethyl)pyrido[3,2-d]pyrimidin-2-yl)phenyl)-5,6,7,8-tetrahydro-1H-pyrazolo[3,4-f][1,4]oxazepine]
